Numbers after ± are expanded uncertainties.
How the values were obtained:
[1] = Crystal; for molar enthalpy of sublimation: 298.15 K, Static calorimetry
[2] = Molar enthalpy of transition or fusion; conditions: Crystal; DSC

Structure (SMILES) | molar enthalpy of sublimation [1] [kcal/mol] | Normal melting temperature ([1]; DTA) [°C] | Molar enthalpy of transition or fusion [2] [kcal/mol]
O=C(O)C1COc2ccccc2O1 (centres undefined) [1,4-benzodioxan-2-carboxylic acid] | 28.2 ± 1 |  | 
OCC1COc2ccccc2O1 (centres undefined) [1,4-benzodioxane-2-methanol] | 25.5 ± 0.406 | 89.2 ± 0.53 | 6.88 ± 0.151

— the NIST ThermoML archive (doi:10.1016/j.jct.2008.06.003)
